{"source": "paper PMC8176444", "about": "(Molecular Biology Reports, 2021)", "target": "T1, angiotensin-converting enzyme (ACE) (Ovis aries, UniProt A0ACI6QSL6)", "T1 sequence (A0ACI6QSL6 34-1310)": "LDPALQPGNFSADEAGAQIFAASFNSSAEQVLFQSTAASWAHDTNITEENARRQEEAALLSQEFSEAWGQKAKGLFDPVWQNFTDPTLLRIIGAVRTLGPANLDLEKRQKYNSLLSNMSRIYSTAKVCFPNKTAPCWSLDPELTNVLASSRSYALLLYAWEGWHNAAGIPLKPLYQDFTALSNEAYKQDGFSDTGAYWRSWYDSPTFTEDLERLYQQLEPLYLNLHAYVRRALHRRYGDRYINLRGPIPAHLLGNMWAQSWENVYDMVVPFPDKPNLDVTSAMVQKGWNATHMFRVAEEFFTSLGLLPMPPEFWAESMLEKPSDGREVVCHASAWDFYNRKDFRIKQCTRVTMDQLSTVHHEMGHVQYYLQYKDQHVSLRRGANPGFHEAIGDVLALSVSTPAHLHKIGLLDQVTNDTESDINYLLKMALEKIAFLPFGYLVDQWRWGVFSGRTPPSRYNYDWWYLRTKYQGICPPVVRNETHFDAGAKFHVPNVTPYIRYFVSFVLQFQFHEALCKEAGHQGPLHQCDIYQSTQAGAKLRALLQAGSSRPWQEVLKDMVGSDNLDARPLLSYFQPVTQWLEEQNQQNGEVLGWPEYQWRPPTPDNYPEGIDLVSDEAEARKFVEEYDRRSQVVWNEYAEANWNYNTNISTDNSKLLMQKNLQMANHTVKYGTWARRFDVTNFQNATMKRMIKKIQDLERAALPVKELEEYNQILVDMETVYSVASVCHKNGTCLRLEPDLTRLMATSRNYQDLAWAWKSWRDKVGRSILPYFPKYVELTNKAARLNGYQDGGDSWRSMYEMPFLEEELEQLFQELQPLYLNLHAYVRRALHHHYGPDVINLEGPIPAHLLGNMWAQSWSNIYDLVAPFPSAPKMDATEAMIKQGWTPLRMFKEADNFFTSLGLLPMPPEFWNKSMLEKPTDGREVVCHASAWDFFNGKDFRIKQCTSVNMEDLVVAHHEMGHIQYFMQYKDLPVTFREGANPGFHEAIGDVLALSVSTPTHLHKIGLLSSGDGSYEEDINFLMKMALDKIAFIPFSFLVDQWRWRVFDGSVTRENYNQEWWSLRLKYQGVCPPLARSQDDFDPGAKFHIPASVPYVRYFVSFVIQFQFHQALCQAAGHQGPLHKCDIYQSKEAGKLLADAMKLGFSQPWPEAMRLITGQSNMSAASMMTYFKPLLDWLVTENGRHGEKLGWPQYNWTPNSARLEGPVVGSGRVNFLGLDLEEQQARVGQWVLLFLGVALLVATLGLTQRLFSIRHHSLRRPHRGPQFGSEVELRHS", "assay": "spectrophotometric FAPGG hydrolysis assay at […] nm", "assay_type": "biochemical"}
{"smiles": "C[C@H](CS)C(=O)N1CCC[C@H]1C(=O)O", "note": "[captopril]", "values": [{"measurement": "Ki", "value": 0.39, "unit": "nM"}]}
